For this data set the following is noted: Liquid; for mass density: 293.2 K, 101.33 kPa.

Numbers after ± are expanded uncertainties.

On to `Cc1ccccc1` [toluene], for which the mass density is 866.81 ± 0.28 kg/m3. Moreover, the “vapor or sublimation pressure” value (384.9 K) came out at 102.09 ± 5.1 kPa.
`Brc1ccccc1` [bromobenzene]: the mass density is 1495.23 ± 1.2 kg/m3. Also, the “vapor or sublimation pressure” value (429.4 K) is recorded as 101.76 ± 2.6 kPa.
As for `c1ccccc1` [benzene], the mass density is 876.53 ± 0.19 kg/m3. Moreover, for the setting “354.4 K”, the “vapor or sublimation pressure” value is 101.77 ± 5.1 kPa.
Regarding `Fc1ccccc1` [fluorobenzene], the mass density is given as 1022.27 ± 0.27 kg/m3. In addition, the “vapor or sublimation pressure” value (358.4 K) came to 101.94 ± 5.1 kPa.
Take `BrCCBr` [1,2-dibromoethane]: the mass density is 2179.24 ± 2.4 kg/m3. In addition, the “vapor or sublimation pressure” value (404.6 K) is listed as 101.81 ± 0.62 kPa. In addition, the “vapor or sublimation pressure” value (405.4 K) is recorded as 102.09 ± 0.52 kPa. For the same compound, the “vapor or sublimation pressure” value (405.5 K) was 102.11 ± 0.52 kPa. The “vapor or sublimation pressure” value (405.8 K) turned out to be 101.86 ± 0.98 kPa.

In general, mass density refers to the mass of a sample divided by its volume. One may read the vapor or sublimation pressure as the pressure of vapour in equilibrium with the condensed phase.

These data come from the NIST ThermoML archive (doi:10.1021/je050231r).
